Measured values as given in EP1228097B1, “ANTIMICROBIAL ACTIVITY OF THE FIRST CATIONIC CLUSTER OF HUMAN LACTOFERRIN” (priority 1999, dated 2005).

Columns and labels:
bacteria = assay: in vitro assay for antibacterial activity, bacteria not specified; type: cell-based; conditions: L. monocytogenes, antibiotic resistant S. aureus, K. pneumoniae, E. coli (FIGS. 2A-2D); 7 µM, 1 h at 37 °C
Protocol: (§1) Listeria monocytogenes strain EGD, Klebsiella pneumoniae (43816), and Escherichia coli O54 were purchased from the American Type Culture Collection (Rockville, MD). Antibiotic resistant S. aureus, K. pneumoniae and E. coli were cultured overnight in nutrient broth (Oxoid, Basingstoke, UK) at 37°C, diluted in tryptase soya broth (TSB, Oxoid) and cultured for an additional 2 h in a shaking waterbath at 37 °C. L. monocytogenes was cultured overnight in brain heart infusion broth (BHI, Oxoid) at 37°C, diluted and cultured for an additional 2 h in a shaking waterbath at 37°C.
In short, bacteria were washed with phosphate-buffered saline (PBS) (pH 7.4) and diluted to a concentration of approximately 2x10^6 CFU/ml of phosphate-buffered saline (pH 6.0) supplemented with 0.1 % (v/v) Tween-20 (hereafter designated as PBS-Tw). […] […] As negative controls, bovine serum albumin (BSA; Sigma) or no peptide were included.

[1] = test system: antibiotic resistant S. aureus; assay: experimental thigh muscle infection; type: in vivo, mice; conditions: for antibacterial activity in infected mice (result in words): mice with thigh muscle infection with antibiotic resistant S. aureus; for amount with which maximum effects on the number of viable bacteria were seen: mice infected with antibiotic resistant S. aureus, i.v. injection 24 h after infection, within 24 h after injection
Protocol: All animal studies were done in compliance with the LUMC Ethical Committee and Dutch laws related to the conduct of animal experiments. […] In short, specific pathogen-free, male, Swiss mice weighing 20-25 g (Broekman Institute, Someren, The Netherlands) were anaesthetized with a single intraperitoneal injection of 0.1 ml of saline containing 1 mg fluanisone and 0.03 mg fentanyl citrate (Hypnorm, Janssen Pharmaceutics, Tilburg, The Netherlands). Preceding scintigraphy, a subcutaneous injection of 0.1 ml, containing 0.2 mg diazepam (Valium, Hoffmann-La Roche, Mijdrecht. The Netherlands) was administered. Immediately thereafter, 1x10^7 CFU of antibiotic resistant S. aureus or K. pneumoniae in 0.1 ml of saline were injected into the right thigh muscle. […] As a control, mice were injected with 0.2 ml of saline containing BSA or saline without any peptide. […] Next, the infected thigh muscles were removed and, after weighing, homogenized in 4 ml of PBS. Appropriate dilutions of the homogenates were applied onto diagnostic sensitivity test plates (Oxoid), and the number of colonies counted after an overnight culture at 37 °C. Results are expressed as the number of CFUs per gram of infected tissue. All negative cultures were assigned the values of 100 CFU/ml of homogenate, which is the lower limit of detection.

[2] = pharmacology of 99mTc-labelled protein/peptides by scintigraphy (clearance, organ uptake, amount at the site of infection); type: in vivo, mice; conditions: for mean t1/2 (removal from the circulation): mouse, in vivo, iv; for Uptake by bladder / Uptake by kidneys / Uptake by liver: 1 nmole 99mTc-labelled, mice infected with antibiotic resistant S. aureus
Excerpt: Labeling yields amounted to 88-95%.

L. monocytogenes = assay: in vitro assay for antibacterial activity (number of viable bacteria); type: cell-based, Listeria monocytogenes strain EGD; conditions: for killing of L. monocytogenes (result in words): dose-effect studies, proteins in PBS-Tw, synthetic peptides in NaPB-TSB
Protocol: as §1
(§2) In short, bacteria were washed with phosphate-buffered saline (PBS) (pH 7.4) and diluted to a concentration of approximately 2x10^6 CFU/ml of phosphate-buffered saline (pH 6.0) supplemented with 0.1 % (v/v) Tween-20 (hereafter designated as PBS-Tw). […] At various time intervals (range 0-4 h) after incubation at 37 °C the number of viable bacteria was determined microbiologically. As negative controls, bovine serum albumin (BSA; Sigma) or no peptide were included.

[3] = test system: antibiotic resistant S. aureus; assay: as above; type: cell-based, Staphylococcus aureus strain 2141; conditions: for killing of antibiotic resistant S. aureus (result in words): dose-effect studies, proteins in PBS-Tw, synthetic peptides in NaPB-TSB
Protocol: as §1, §2

K. pneumoniae = assay: as above; type: cell-based, Klebsiella pneumoniae (43816); conditions: proteins in PBS-Tw, synthetic peptides in NaPB-TSB
Protocol: as §1, §2

E. coli = assay: as above; type: cell-based, Escherichia coli O54; conditions: synthetic peptides in NaPB-TSB, 1 h at 37 °C
Protocol: as §1
[…] […] At various time intervals (range 0-4 h) after incubation at 37 °C the number of viable bacteria was determined microbiologically. As negative controls, bovine serum albumin (BSA; Sigma) or no peptide were included.

Row | Substance | bactericidal activity against the various bacteria (bacteria) | antibacterial activity in infected mice (result in words) [1] | mean t1/2 (removal from the circulation) [2] | killing of L. monocytogenes (result in words) (L. monocytogenes) | killing of antibiotic resistant S. aureus (result in words) [3] | killing of K. pneumoniae (result in words) (K. pneumoniae) | killing of E. coli by synthetic peptides (result in words) (E. coli) | also measured
1 | hLF(4-11): synthetic fragment of hLF(1-11): residues 4-11 of hLF (RSVQWCAV; UniProt P02788 23-30, looked up, fragment) | displayed bactericidal activity | some antibacterial activity | approximately 1 min |  |  |  |  | 
2 | hLF(5-11): synthetic fragment of hLF(1-11): residues 5-11 of hLF (SVQWCAV; UniProt P02788 24-30, looked up, fragment) | ineffective |  |  |  |  |  |  | 
3 | hLF(3-11): synthetic fragment of hLF(1-11): residues 3-11 of hLF (RRSVQWCAV; UniProt P02788 22-30, looked up, fragment) | displayed bactericidal activity |  |  | significantly (p<0.05) more efficient than hLF(4-11) | significantly (p<0.05) more efficient than hLF(4-11) | killed | killed | 
4 | hLF(2-11): residues 2 to 11 inclusively from the N-terminal region of hLF (RRRSVQWCAV; UniProt P02788 21-30, looked up, fragment) | displayed bactericidal activity |  |  | considerably (p<0.05) more efficient than hLF(3-11) | considerably (p<0.05) more efficient than hLF(3-11) | killed | killed | 
5 | hLF(6-11): synthetic fragment of hLF(1-11): residues 6-11 of hLF (VQWCAV; UniProt P02788 25-30, looked up, fragment) | ineffective |  |  |  |  |  |  | 
6 | GRRRRSVQWCA [hLF(1-11), Mr 1,374] | displayed bactericidal activity | much more effective than hLF(4-11) | ~9 min | considerably (p<0.05) more efficient than hLF(3-11) | considerably (p<0.05) more efficient than hLF(3-11) | killed | killed | bactericidal efficiency relative to hLF(21-31) (L. monocytogenes; L. monocytogenes, FIGS. 3A-3C): at least ten times more (p<0.05) efficient than hLF(21-31); bactericidal efficiency relative to hLF(21-31) ([3]; antibiotic resistant S. aureus, FIGS. 3A-3C): at least ten times more (p<0.05) efficient than hLF(21-31); amount with which maximum effects on the number of viable bacteria were seen [1]: 0.1 nmol; Uptake by bladder ([2]; interval 1 min): 10±1.5 % ID; Uptake by kidneys ([2]; interval 1 min): 18±3.8 % ID; Uptake by liver ([2]; interval 1 min): 20±1.6 % ID; Uptake by bladder ([2]; interval 15 min): 11±7.5 % ID; Uptake by kidneys ([2]; interval 15 min): 21±9.3 % ID; Uptake by liver ([2]; interval 15 min): 20±4.9 % ID; Uptake by bladder ([2]; interval 30 min): 21±5.7 % ID; Uptake by kidneys ([2]; interval 30 min): 17±5.7 % ID; Uptake by liver ([2]; interval 30 min): 20±1.6 % ID; Uptake by bladder ([2]; interval 60 min): 22±5.6 % ID; Uptake by kidneys ([2]; interval 60 min): 14±0.4 % ID; Uptake by liver ([2]; interval 60 min): 27±0.6 % ID; amount of radiolabeled peptide at the site of infection ([2]; within the first min after injection of 1 nmole, antibiotic resistant S. aureus-infected mice): 1-1.5 % of injected dose (ID)
7 | FQWQRNMRKVR [hLF(21-31), Mr 1,548; includes the second cationic domain, reference compound] |  | less effective than hLF(1-11) | ~2 min |  |  |  |  | amount with which maximum effects on the number of viable bacteria were seen [1]: 10 nmol
